In patent US8338517B2, “Aqueous compositions of fluorinated surfactants and methods of using the same” (3M Innovative Properties Company, priority 2007, dated 2012):

Assay: Static surface tension of aqueous surfactant solutions (Kruss K-12 tensiometer, Du Nouy ring method)
Format: physicochemical
Details: 1000 ppm in water, 20° C.
Method: The solution from was diluted with water to a concentration of 1000 ppm.
The procedure of Preparation 1 was followed except using 16.3 grams of C3F7OCHFCF2COOCH3 instead of the CF3O(CF2)3OCHFCF2COOCH3 to prepare a solution of C3F7OCHFCF2COOK. This solution was diluted with water to a concentration of 1000 ppm.
Static surface tensions were measured on the solutions of Preparations 1 to 6 using a Kruss K-12 tensiometer (obtained from Kruss GmbH, Hamburg, Germany) using the Du Nouy ring method at 20° C.

O=C([O-])C(F)(F)C(F)(F)C(F)(F)C(F)(F)C(F)(F)F.[K+] [potassium perfluorohexanoate]
Surface Tension: 58.5 mN/m
